According to patent publication US20260258035A1, “FIVE-MEMBERED AND SIX-MEMBERED NITROGEN-CONTAINING COMPOUND, AND INTERMEDIATE, PREPARATION METHOD AND USE THEREOF” (HANGZHOU SYNRX THERAPEUTICS BIOMEDICAL TECHNOLOGY CO., LTD., priority 2022, published 2026):
Read-outs that look alike come from different tables or passages of the source.

Experiments:
[1] = test system: Human breast squamous carcinoma cells HCC1806; test: Cell function assay (In-Cell Western, PAR/pADPr after MMS); format: cell-based; conditions: read-out: IC50 (nM) in cell function assay
Method in brief: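 HCC1806 cells adhered 24 h at 37 °C, 5% CO2, then were pretreated 1 h with compound (30000 nM down to 1 nM, plus 0 nM) or DMSO. MMS was then added at 0.5 mM final for 1 h before In-Cell Western detection of PAR/pADPr.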

PXR = target: T1, PXR (Homo sapiens, UniProt O75469); test: PXR assay (DPX2 luciferase reporter cells); format: cell-based; conditions: 24 h; for PXR Activation @30 uM (% Ctrl): positive control rifampicin
T1 construct: host or cells: DPX2 (HepG2)
T1 sequence (O75469 1-434): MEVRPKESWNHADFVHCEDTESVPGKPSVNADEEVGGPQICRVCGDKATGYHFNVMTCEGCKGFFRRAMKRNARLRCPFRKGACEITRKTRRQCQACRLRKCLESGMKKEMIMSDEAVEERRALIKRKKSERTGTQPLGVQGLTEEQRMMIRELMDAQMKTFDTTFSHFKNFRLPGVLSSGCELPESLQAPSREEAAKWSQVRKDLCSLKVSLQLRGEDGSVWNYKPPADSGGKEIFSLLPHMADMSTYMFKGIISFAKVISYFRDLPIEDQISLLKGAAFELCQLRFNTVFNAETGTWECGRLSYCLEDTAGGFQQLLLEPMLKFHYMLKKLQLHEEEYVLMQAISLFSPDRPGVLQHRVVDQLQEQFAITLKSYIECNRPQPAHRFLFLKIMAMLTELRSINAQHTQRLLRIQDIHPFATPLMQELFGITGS
Method in brief: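 DPX2 cells (HepG2 stably carrying human PXR plus luciferase reporter) dosed 24 h with compound at 10, 1, 0.1 μM or 30–0.1 μM for EC50, 0.1% DMSO. Viability by CellTiter-Fluor (ex 400/em 505 nm), then ONE-Glo luciferase luminescence for PXR activation.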

PARG = PARG (Homo sapiens, UniProt Q86W56); test: Biochemical assay (PARG, TFMU-ADPr substrate)
[2] = HCC1806, In-Cell Western, MMS treatment
[3] = HCC1806, compound 1 h then 0.5 mM MMS 1 h, PAR/pADPr antibody, In-Cell Western
[4] = 4 nM PARG, 66.2 uM TFMU-ADPr, 3 min at room temperature

PARG, sequence (Q86W56 whole entry): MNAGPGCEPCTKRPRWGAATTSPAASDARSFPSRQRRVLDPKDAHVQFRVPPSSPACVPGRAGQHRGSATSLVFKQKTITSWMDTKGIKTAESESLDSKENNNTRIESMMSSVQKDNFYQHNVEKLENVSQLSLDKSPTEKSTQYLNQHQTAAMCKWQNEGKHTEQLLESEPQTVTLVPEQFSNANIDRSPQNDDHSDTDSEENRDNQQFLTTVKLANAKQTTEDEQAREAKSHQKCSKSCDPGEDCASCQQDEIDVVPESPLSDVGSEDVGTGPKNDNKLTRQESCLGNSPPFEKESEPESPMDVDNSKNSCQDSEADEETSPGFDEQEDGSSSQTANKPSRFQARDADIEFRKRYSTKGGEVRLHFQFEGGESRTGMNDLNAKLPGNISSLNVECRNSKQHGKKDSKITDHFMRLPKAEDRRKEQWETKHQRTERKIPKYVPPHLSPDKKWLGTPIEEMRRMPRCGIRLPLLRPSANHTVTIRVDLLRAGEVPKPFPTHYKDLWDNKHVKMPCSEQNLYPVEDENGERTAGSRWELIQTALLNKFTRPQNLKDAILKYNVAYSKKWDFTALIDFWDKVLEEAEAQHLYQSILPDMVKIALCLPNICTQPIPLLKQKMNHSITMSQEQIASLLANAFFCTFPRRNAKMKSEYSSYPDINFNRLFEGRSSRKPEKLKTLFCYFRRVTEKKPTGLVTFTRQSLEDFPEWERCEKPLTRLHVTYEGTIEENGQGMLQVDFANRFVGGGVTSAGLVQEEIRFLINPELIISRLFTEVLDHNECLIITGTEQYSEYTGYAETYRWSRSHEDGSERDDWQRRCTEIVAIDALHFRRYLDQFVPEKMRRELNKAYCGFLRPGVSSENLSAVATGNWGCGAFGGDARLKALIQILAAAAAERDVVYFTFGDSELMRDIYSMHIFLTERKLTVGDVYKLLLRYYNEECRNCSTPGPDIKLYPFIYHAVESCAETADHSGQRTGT

IC50 [1, 2] [nM]	IC50 [1, 3] [nM]	PXR Activation @30 uM (Fold) (PXR)	PXR Activation @30 uM (% Ctrl) (PXR)	IC50 (PARG; [4]) [nM]	IC50 (PARG; PARG, TFMU-ADPr substrate) [nM]	Structure (SMILES)
10.8	< 100	2.7	19	< 100	0.77	CC(C)C(=O)N1CCN(c2cc(S(=O)(=O)NC3(C#N)CC3)cn3c(-c4nnc(C(F)F)s4)ncc23)CC1 [Example 32, N-(1-cyanocyclopropyl)-3-(5-(difluoromethyl)-1,3,4-thiadiazol-2-yl)-8-(4-isobutyrylpiperazin-1-yl)imidazo[1,5-a]pyridine-6-sulfonamide]
6.34	< 100	5.0	34	< 100	16.6	CC(C)C(=O)N1CCN(c2cc(S(=O)(=O)NC3(C#N)CC3)cn3c(-c4nnc(C(F)(F)F)s4)ncc23)CC1 [Example 167, N-(1-cyanocyclopropyl)-8-(4-isobutyrylpiperazin-1-yl)-3-(5-(trifluoromethyl)-1,3,4-thiadiazol-2-yl)imidazo[1,5-a]pyridine-6-sulfonamide]
